For experiment [1], the target named is T1, PPARG/RXRA LBD heterodimer (Homo sapiens, UniProt P37231).
T1 construct: His-TEV-Q203-Y477; Uniprot ID P37231-2; made in house; host or cells: E. coli
T1 sequence (P37231 203-477 isoform P37231-2): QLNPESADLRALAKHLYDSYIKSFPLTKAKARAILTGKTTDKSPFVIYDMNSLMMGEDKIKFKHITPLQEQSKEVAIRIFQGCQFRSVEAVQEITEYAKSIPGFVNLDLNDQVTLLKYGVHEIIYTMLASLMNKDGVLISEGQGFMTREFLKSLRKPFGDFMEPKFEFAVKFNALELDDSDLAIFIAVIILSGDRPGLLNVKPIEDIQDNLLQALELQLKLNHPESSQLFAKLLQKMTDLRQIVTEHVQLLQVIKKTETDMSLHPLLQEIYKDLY
T1 sequence (P19793 228-462 partner limits assumed): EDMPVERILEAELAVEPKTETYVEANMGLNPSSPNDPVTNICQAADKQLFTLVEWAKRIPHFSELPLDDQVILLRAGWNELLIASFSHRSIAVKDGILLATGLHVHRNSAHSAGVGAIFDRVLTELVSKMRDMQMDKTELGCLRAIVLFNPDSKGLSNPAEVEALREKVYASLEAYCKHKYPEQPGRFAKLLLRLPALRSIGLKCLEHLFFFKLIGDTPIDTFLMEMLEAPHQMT
Kind of experiment: PPARγ-MED1 blockade assay (TR-FRET, biotinylated MED1 LxxLL peptide). In kind it is binding. The conditions noted are these: for Emax: 3 h, maximal extent, GW9662 defined as 100%, DMSO 0%, read-out: % MED1 blockade relative to GW9662; for EC50: TR-FRET, 80 nM Rosiglitazone, 3 hours incubation. The procedure:
PPARγ-MED1 Blockade Assay:
Compound potency (ICs) and maximal extent of MED1 repulsion to PPARG were assessed a TR-FRET binding assay measuring association of a biotinylated MED1 LxxLL peptide (Biotin-[…]-amide) to PPARG/RXRA LBD heterodimer. Specifically, a 20 microliters of TR-FRET master mix consisting of 2 nM WT PPARG LBD (E. coli expressed, His-TEV-Q203-Y477; Uniprot ID P37231-2), 2 nM WT RXRA LBD (E. coli expressed, Flag-TEV-E228-T462; […]. Mixtures were incubated for 3 hours and read in an EnVision plate reader (Perkin Elmer) with […]. To determine the potency (ICso) and extent of MED1 repulsion. TR-FRET ratios were normalized to the average ratio of DMSO control wells (0%) and to the average minimum ratio for positive control compound (GW9662 (2-chloro-5-nitrobenzanilide); defined as 100%/6) in CDD Vault and analyzed using the Levenberg-Marquardt algorithm.

The subject of experiment [2] is ANGPTL4, a PPARG target gene, in HT1197 (RXRA S427F mutation) cells. Description: Bladder cancer pharmacodynamic assay, HT1197 cell assay (quantitative PCR of PPARG target genes). The conditions noted are these: Homo sapiens; for inhibition at 0.1 µM: 100 nM compound, 24 hours, percentage of a DMSO control; for EC50: 24 hours treatment, qPCR. In kind it is cell-based. The procedure:
Bladder Cancer Pharmacodynamic Assay
5637 (PPARG amplified) and HT1197 (RXRA S427F mutation) cells were used for assessment of modulation of PPARG target genes using quantitative PCR. Cells were treated for 24 hours with PPARG inverse agonists prior to analysis of FABP4 (IDT, Cat: Hs.PT 58.20106818) and ANGPTL4 (IDT, Cat: Hs.PT 58.25480012) expression, with expression of the housekeeping gene TBP (IDT, Cat: Hs.PT 58v.39858774) used to normalize expression across samples. Quantitative PCR was performed using an ABI QuantStudio 7 Flex Reaction system. Data were analyzed and reported relative to DMSO control using the comparative Ct method (ΔΔCt).

For experiment [3], the target named is T2, PPARG/RXRA LBD heterodimer (Homo sapiens, UniProt P37231).
T2 construct: His-TEV-Q203-Y477: Uniprot ID P37231-2; made in house; host or cells: E. coli
Kind of experiment: PPARγ-NCOR1 recruitment assay (TR-FRET, biotinylated NCOR1 ID2 peptide). Format: binding. The conditions noted are these: for Emax: 3 h, maximal extent, T0070907 defined as 100%, DMSO 0%, read-out: % NCOR recruitment relative to T907; for EC50: TR-FRET, 80 nM Rosiglitazone, 3 hours incubation, read-out: PPARG-NCOR recruitment assay EC50. Here is the method: PPARγ-NCOR1 Recruitment Assay:
Compound potency (EC50) and maximal extent of NCOR1 recruitment to PPARG were assessed a TR-FRET binding assay measuring association of a biotinylated NCOR1 ID2 peptide (Biotin-[…]-amide) to PPARG/RXRA LBD heterodimer. Specifically, a 20 microliters of TR-FRET master mix consisting of 2 nM WT PPARG LBD (E. coli expressed, His-TEV-Q203-Y477: Uniprot ID P37231-2), 2 nM WT RXRA LBD or mutant S427F RXRA LBD (E. coli expressed, Flag-TEV-E228-T462; […]. Mixtures were incubated for 3 hours and read in an EnVision plate reader (Perkin Elmer) with […]. To determine the potency (EC50) and extent of NCOR1 recruitment, TR-FRET ratios were normalized to the average ratio of DMSO control wells (0%) and to the average maximum ratio for positive control compound (T0070907 (2-chloro-5-nitro-N-4-pyridinyl-benzamide); defined as 100%) in CDD Vault and analyzed using the Levenberg-Marquardt algorithm.
T2 sequence (O75376 2251-2273 partner, one chain of several): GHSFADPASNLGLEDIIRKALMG

Molecules are shown by their SMILES.

Turning to `CN1CCN(c2c(F)cc3[nH]c(-c4cc(C#N)ccc4S(C)(=O)=O)cc(=O)c3c2F)CC1` [Example 3, 3-(5,7-difluoro-6-(4-methylpiperazin-1-yl)-4-oxo-1,4-dihydroquinolin-2-yl)-4-(methylsulfonyl)-benzonitrile], the Emax in experiment [1] and in experiment [3] was > 100% throughout. Further, the EC50 in experiment [1] and in experiment [3] was 100 to 1000 nM throughout. Also, the inhibition at 0.1 µM in experiment [2] was 66%.

For the compound `CC(C)S(=O)(=O)c1ccc(C#N)cc1-c1cc(=O)c2c(F)cc(F)cc2[nH]1` [Example 12, 3-(5,7-difluoro-4-oxo-1,4-dihydroquinolin-2-yl)-4-(isopropylsulfonyl)benzonitrile], the Emax in experiment [1] and in experiment [3] was < 100% in each case. Moreover, the EC50 in experiment [1] and in experiment [3] was > 10000 nM in each case. The inhibition at 0.1 µM in experiment [2] worked out at 67%.

As to `CCS(=O)(=O)c1ccc(C#N)cc1-c1cc(=O)c2c(F)cc(F)cc2[nH]1` [Example 2, 3-(5,7-difluoro-4-oxo-1,4-dihydroquinolin-2-yl)-4-(ethylsulfonyl)-benzonitrile], in experiment [1], the Emax is > 100% and the EC50 fell in the range of 100 to 1000 nM. Moreover, in experiment [2], 0.1 µM produced 86% inhibition. Moreover, in experiment [3], the Emax is > 100% and the EC50 fell in the range of 100 to 1000 nM.

For the compound `CC(C)CS(=O)(=O)c1ccc(C#N)cc1-c1cc(=O)c2c(F)cc(F)cc2[nH]1` [Example 13, 3-5,7-difluoro-4-oxo-1,4-dihydroquinolin-2-yl-4-(isobutylsulfonyl)benzonitrile], the Emax in experiment [1] and in experiment [3] was < 100% throughout. Further, the EC50 in experiment [1] and in experiment [3] was 1000 to 10000 nM throughout. In experiment [2], this compound came in with an inhibition at 0.1 µM of 77%.

In the case of `C[S+]([O-])c1ccc(C#N)cc1-c1cc(=O)c2c(F)cc(F)cc2[nH]1` (centres unmarked) [Example 7, 3-(5,7-difluoro-4-oxo-1,4-dihydroquinolin-2-yl)-4-(methylsulfinyl)benzonitrile], the Emax in experiment [1] and in experiment [3] was > 100% throughout. The EC50 in experiment [1] is > 10000 nM; in experiment [3], 1000 to 10000 nM. This compound also registered an inhibition at 0.1 µM in experiment [2] of 26%.

Regarding `CSc1ccc(C#N)cc1-c1cc(=O)c2c(F)cc(F)cc2[nH]1` [Example 6, 3-(5,7-difluoro-4-oxo-1,4-dihydroquinolin-2-yl)-4-(methylthio)benzonitrile], the EC50 in experiment [1] and in experiment [3] was > 10000 nM throughout. In experiment [2], the inhibition at 0.1 µM was 17%.

As for `N#Cc1ccc(S(=O)(=O)CC(F)(F)F)c(-c2cc(=O)c3c(F)cc(F)cc3[nH]2)c1` [Example 4, 3-(5,7-difluoro-4-oxo-1,4-dihydroquinolin-2-yl)-4-((2,2,2-trifluoroethyl)sulfonyl)-benzonitrile], the Emax in experiment [1] and in experiment [3] was > 100% in each case. The EC50 in experiment [1] and in experiment [3] was 100 to 1000 nM each time. Moreover, 0.1 µM produced 14% inhibition in experiment [2].

For the compound `N#Cc1ccc(S(=O)(=O)C(F)(F)F)c(-c2cc(=O)c3c(F)cc(F)cc3[nH]2)c1` [Example 11], in experiment [1], the Emax was > 100% and the EC50 was < 10 nM. Moreover, in experiment [2], at 0.1 µM the inhibition was 88% and the EC50 amounted to 0.07 nM. In experiment [3], the Emax is > 100% and the EC50 was < 10 nM.

Consider `Cn1cc(-c2c(F)cc3[nH]c(-c4cc(C#N)ccc4S(C)(=O)=O)cc(=O)c3c2F)cn1` [Example 14], for which, in experiment [1], the Emax is > 100% and the EC50 lay in the range of 10 to 100 nM. For the same compound, the inhibition at 0.1 µM in experiment [2] was 89%. For the same compound, in experiment [3], the Emax is > 100% and the EC50 was 10 to 100 nM.

For the compound `CS(=O)(=O)c1ccc(C#N)cc1-c1cc(=O)c2c(F)cc(Cl)cc2[nH]1` [Example 10], the Emax in experiment [1] and in experiment [3] was > 100% each time. Besides, the results for the EC50 in experiment [1], in experiment [2] and in experiment [3] were 10 to 100 nM, 1.6 nM and 10 to 100 nM, respectively. Testing at 0.1 µM in experiment [2] gave an inhibition of 89%.

As for `CS(=N)(=O)c1ccc(C#N)cc1-c1cc(=O)c2c(F)cc(F)cc2[nH]1` (centres unmarked) [Example 8, 3-(5,7-difluoro-4-oxo-1,4-dihydroquinolin-2-yl)-4-(S-methylsulfonimidoyl)benzonitrile], in experiment [1], the Emax is > 100% and the EC50 was 100 to 1000 nM. In experiment [2], this compound gave an inhibition at 0.1 µM of 84%. Besides, in experiment [3], the Emax was > 100% and the EC50 lay within 100 to 1000 nM.

With `CS(=O)(=O)c1ccc(C#N)cc1-c1cc(=O)c2ccc(Cl)cc2[nH]1` [Example 9, 3-(7-chloro-4-oxo-1,4-dihydroquinolin-2-yl)-4-(methylsulfonyl)benzonitrile], in experiment [1], the Emax is > 100% and the EC50 fell in the range of 10 to 100 nM. In experiment [2], this compound registered an inhibition at 0.1 µM of 85% and an EC50 of 0.9 nM. For the same compound, in experiment [3], the Emax is > 100% and the EC50 was 10 to 100 nM.

Consider `CS(=O)(=O)c1ccc(C#N)cc1-c1cc(=O)c2c(F)cc(F)cc2[nH]1` [Example 1, 3-(5,7-difluoro-4-oxo-1,4-dihydroquinolin-2-yl)-4-(methylsulfonyl)benzonitrile], for which, in experiment [1], the Emax is > 100% and the EC50 is 100 to 1000 nM. In experiment [2], this compound showed an inhibition at 0.1 µM of 88% and an EC50 of 1.3 nM. Further, in experiment [3], the Emax is > 100% and the EC50 lay within 100 to 1000 nM.

Regarding `Cc1ccc(-c2c(F)cc3[nH]c(-c4cc(C#N)ccc4S(C)(=O)=O)cc(=O)c3c2F)cn1` [Example 15, 3-(5,7-difluoro-6-(6-methylpyridin-3-yl)-4-oxo-1,4-dihydroquinolin-2-yl)-4-(methylsulfonyl)benzonitrile], in experiment [1], the Emax is > 100% and the EC50 was 10 to 100 nM. Moreover, at 0.1 µM the inhibition in experiment [2] was 68%. Further, in experiment [3], the Emax is > 100% and the EC50 lay in the range of 10 to 100 nM.

With `N#Cc1ccc([S+]([O-])CC(F)(F)F)c(-c2cc(=O)c3c(F)cc(F)cc3[nH]2)c1` (centres unmarked) [Example 5], in experiment [1], the Emax is > 100% and the EC50 lay within 1000 to 10000 nM. Besides, in experiment [2], the inhibition at 0.1 µM was 15%. In experiment [3], the Emax is > 100% and the EC50 was 1000 to 10000 nM.

These data come from US11820747B2, “PPARG inverse agonists and uses thereof” (Flare Therapeutics Inc., priority 2021, dated 2023).
